Marks after values point to notes of the source that are not given here.
Key:
[1] = biological target: T1, Human recombinant HMG-CoA reductase (Homo sapiens, UniProt P04035); assay: HMG-CoA reductase inhibition test ([14C]mevalonate formation); type: biochemical; settings: for inhibition at 30 µM / inhibition at 3 µM: duplicates; for HMG-CoA reductase inhibiting activity (in words): own investigations
T1 sequence (P04035 426-888 limits assumed): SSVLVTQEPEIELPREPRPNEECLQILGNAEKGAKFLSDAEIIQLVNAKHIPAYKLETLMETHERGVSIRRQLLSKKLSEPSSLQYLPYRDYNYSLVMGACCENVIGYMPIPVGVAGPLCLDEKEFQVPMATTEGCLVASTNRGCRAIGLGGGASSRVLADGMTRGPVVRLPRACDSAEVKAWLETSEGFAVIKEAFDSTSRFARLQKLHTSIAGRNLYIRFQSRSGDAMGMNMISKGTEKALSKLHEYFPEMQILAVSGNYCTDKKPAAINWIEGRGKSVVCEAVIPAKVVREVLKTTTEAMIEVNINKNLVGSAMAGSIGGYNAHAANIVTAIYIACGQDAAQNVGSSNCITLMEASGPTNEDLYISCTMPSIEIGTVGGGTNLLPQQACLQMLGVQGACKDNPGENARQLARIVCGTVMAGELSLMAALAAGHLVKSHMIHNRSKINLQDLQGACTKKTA
Experimental: Inhibition of HMG-CoA reductase was determined under following conditions. Human recombinant HMG-CoA reductase were pre-incubated with 35 ng/ml enzyme in reaction buffer, pH 7.5 (100 mM KH2PO4, 8 mM Glucose-6-Phosphate, 1 mM nicotinamide adenine dinucleotide phosphate, 4 mM ethylenediaminetetraacetic acid, 2 mM dithiothreitol, 0.6 Units glucose-6-phosphate dehydrogenase) for 15 minutes at 37° C. The reaction was initiated by addition of 2.5 μM [14C]HMG-CoA for another 20 minute incubation period and terminated by further addition of 1 N HCl. An aliquot was removed and then counted to determine the amount of [14C]Mevalonate formed. […] All samples were measured in duplicates.

[2] = tested on: hamsters fed with a high-cholesterol diet; assay: In vivo food cholesterol reduction (hypocholesterolemic activity); set-up: species or system golden Syrian hamsters; settings: oral once a day, extract 100 mg/kg, ezetimibe 1 mg/kg
Experimental: The dry extract of example 1 was evaluated for possible hypocholesterolemic activity in hamsters fed with a high-cholesterol diet. Groups of 10 male golden Syrian hamsters were induced to hypercholesterolemia by a high cholesterol diet (g/100 g: 5.0 corn oil, 5.0 coconut oil, 0.2 cholesterol and 89.8 standard diet throughout the 28-day experimental period. After the test animals had been kept on the high cholesterol diet for 7 days, vehicle (1% Cremophor EL in phosphate buffered saline) and extract of example 1 (incorporated into said vehicle) were administered orally, starting on day 1, for 28 days at 100 mg/kg, once a day, were administered orally for 28 consecutive days. Ezetimibe, the positive control, was also administered orally (at 1 mg/kg) for 28 consecutive days. Blood was drawn in overnight fasted animals on day 1 (pre-treatment), day 8, day 15, and day 29 for measurements of serum total cholesterol (Total plasma cholesterol), high density lipoprotein (HDL), low density lipoprotein (LDL) and triglyceride (TG) levels. The measurement values on day 8, day 15, […] and day 29 were transformed into percentage. One-way ANOVA and Dunnett's test were used to ascertain difference between vehicle control and treated groups.

SMILES	inhibition at 30 µM [1]	inhibition at 3 µM [1]	further results
C[C@@H]1CC[C@]2(C(=O)O)CC[C@]3(C)C(=CC[C@@H]4[C@@]5(C)CC[C@H](O)C(C)(C)[C@@H]5CC[C@]43C)[C@@H]2[C@]1(C)O [Pomolic acid]	25%		
O=c1c(O[C@@H]2O[C@H](CO)[C@H](O)[C@H](O)[C@H]2O)c(-c2ccc(O)c(O)c2)oc2cc(O)cc(O)c12 [Quercetin-3-O-beta-D-galactopyranoside]		75%	HMG-CoA reductase inhibiting activity (in words) [1]: very good HMG-CoA reductase inhibiting activity
O=C1[C@H](CC[C@H](O)c2ccc(F)cc2)[C@@H](c2ccc(O)cc2)N1c1ccc(F)cc1 [Ezetimibe]			LDL levels relative to day one ([2]; t = day 1 (pre-treatment)): 100%; Total plasma cholesterol levels relative to day one (pre-treatment) ([2]; t = day 1 (pre-treatment)): 100%; LDL levels relative to day one ([2]; t = day 15): 22%*; Total plasma cholesterol levels relative to day one (pre-treatment) ([2]; t = day 15): 61%*; LDL levels relative to day one ([2]; t = day 29): 15%*; Total plasma cholesterol levels relative to day one (pre-treatment) ([2]; t = day 29): 41%*
C[C@@H]1CC[C@]2(C(=O)O)CC[C@]3(C)C(=CC[C@@H]4[C@@]5(C)CC[C@@H](O)[C@](C)(CO)[C@@H]5CC[C@]43C)[C@@H]2[C@]1(C)O [Barbinervic acid]	37%		
CC[C@H](C)C(=O)O[C@H]1C[C@@H](C)C=C2C=C[C@H](C)[C@H](CC[C@@H]3C[C@@H](O)CC(=O)O3)[C@H]21 [Lovastatin]	100%	100%	
C[C@H]1[C@H](C)CC[C@]2(C(=O)O)CC[C@]3(C)C(=CC[C@@H]4[C@@]5(C)CC[C@H](O)C(C)(C)[C@@H]5CC[C@]43C)[C@H]12 [Ursolic acid]	0%	0%	
C[C@@H]1CC[C@]2(C(=O)O)CC[C@]3(C)C(=CC[C@@H]4[C@@]5(C)C[C@@H](O)[C@@H](O)C(C)(C)[C@@H]5CC[C@]43C)[C@@H]2[C@]1(C)O [Euscaphic acid]		91%	HMG-CoA reductase inhibiting activity (in words) [1]: strongest HMG-CoA reductase inhibiting activity

— patent publication US10047034B2, “Polyhydroxylated pentacyclic triterpene acids as HMG-COA reductase inhibitors” (Prairie Berry Europe GmbH, priority 2012, dated 2018)
